Patent publication US20130261077A1 (priority 2012, published 2013)

Target: T1, FimH-CRD (Escherichia coli, UniProt P08191)
T1 construct: The first 177 amino acids of the FimH protein; thrombin tag (printed as 'fusion protein with thrombin') (cleaved yes); made in house; host or cells: bacteria (pET21b plasmid)
Test: Competitive binding assay by fluorescence polarization, assay 1 (compounds prepared by manual serial dilution)
Method in brief: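 Compounds at 0.4 nM–75 μM final (12 points, 3-fold steps, duplicate) compete with a 5 nM Alexa 647 mannoside probe for 60 nM FimH-CRD; 5 h room-temperature incubation in pH 7.0 Tris buffer with 2.5% DMSO, FP read-out, Kd from fitted curves. Assay 1 uses manual dilution, assay 2 robot-made frozen/thawed plates.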

T1 sequence (P08191 22-177): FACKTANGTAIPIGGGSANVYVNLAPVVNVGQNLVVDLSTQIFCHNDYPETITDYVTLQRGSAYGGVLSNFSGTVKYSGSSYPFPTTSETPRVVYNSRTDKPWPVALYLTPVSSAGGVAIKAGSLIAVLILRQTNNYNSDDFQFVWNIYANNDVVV

| SMILES | IC50 | Kd |
| --- | --- | --- |
| CNC(=O)c1cccc(Oc2cccc([C@H]3O[C@H](CO)[C@@H](O)[C@H](O[C@H]4O[C@H](CO)[C@@H](O)[C@H](O)[C@@H]4O)[C@@H]3O)c2)c1 [Compound 269, 3-[3-[(2R,3R,4R,5R,6R)-3,5-Dihydroxy-6-(hydroxymethyl)-4-[(2R,3S,4S,5S,6R)-3,4,5-trihydroxy-6-(hydroxymethyl)tetrahydropyran-2-yl]oxy-tetrahydropyran-2-yl]phenoxy]-N-methyl-benzamide] | 0.01 µM | < 0.005 µM |
| OC[C@H]1O[C@H](O[C@@H]2[C@H](O)[C@@H](c3cccc(Oc4ccc(F)cc4)c3)O[C@H](CO)[C@H]2O)[C@@H](O)[C@@H](O)[C@@H]1O [Compound 270, (2R,3S,4S,5S,6R)-2-[(2R,3R,4R,5R,6R)-2-[3-(4-Fluorophenoxy)phenyl]-3,5-dihydroxy-6-(hydroxymethyl)tetrahydropyran-4-yl]oxy-6-(hydroxymethyl)tetrahydropyran-3,4,5-triol] | 0.054 µM | 0.0144 ± 0.0026 µM |
| OC[C@H]1O[C@H](O[C@@H]2[C@H](O)[C@@H](c3cccc(Oc4ccccc4)c3)O[C@H](CO)[C@H]2O)[C@@H](O)[C@@H](O)[C@@H]1O [Compound 271, (2R,3S,4S,5S,6R)-2-[(2R,3R,4R,5R,6R)-3,5-Dihydroxy-2-(hydroxymethyl)-6-(3-phenoxyphenyl)tetrahydropyran-4-yl]oxy-6-(hydroxymethyl)tetrahydropyran-3,4,5-triol] | 0.027 µM | 0.0147 ± 0.007 µM |
| Cc1nnc(-c2ccc(Oc3cccc([C@H]4O[C@H](CO)[C@@H](O)[C@H](O[C@H]5O[C@H](CO)[C@@H](O)[C@H](O)[C@@H]5O)[C@@H]4O)c3)cc2)o1 [Compound 272, (2R,3S,4S,5S,6R)-2-[(2R,3R,4R,5R,6R)-3,5-Dihydroxy-2-(hydroxymethyl)-6-[3-[4-(5-methyl-1,3,4-oxadiazol-2-yl)phenoxy]phenyl]tetrahydropyran-4-yl]oxy-6-(hydroxymethyl)tetrahydropyran-3,4,5-triol] | 0.046 µM | 0.0127 ± 0.0077 µM |
| Cc1cc(C)cc(Oc2cccc([C@H]3O[C@H](CO)[C@@H](O)[C@H](O[C@H]4O[C@H](CO)[C@@H](O)[C@H](O)[C@@H]4O)[C@@H]3O)c2)c1 [Compound 274, (2R,3S,4S,5S,6R)-2-[(2R,3R,4R,5R,6R)-2-[3-(3,5-Dimethylphenoxy)phenyl]-3,5-dihydroxy-6-(hydroxymethyl)tetrahydropyran-4-yl]oxy-6-(hydroxymethyl)tetrahydropyran-3,4,5-triol] | 0.034 µM | 0.0431 ± 0.053 µM |
| CNC(=O)c1ccc(-c2cccc([C@H]3O[C@H](CO)[C@@H](O)[C@H](O[C@H]4O[C@H](CO)[C@@H](O)[C@H](O)[C@@H]4O)[C@@H]3O)c2)cc1 [Compound 275, 4-[3-[(2R,3R,4R,5R,6R)-3,5-Dihydroxy-6-(hydroxymethyl)-4-[(2R,3S,4S,5S,6R)-3,4,5-trihydroxy-6-(hydroxymethyl)tetrahydropyran-2-yl]oxy-tetrahydropyran-2-yl]phenyl]-N-methyl-benzamide] | 0.028 µM | 0.0268 ± 0.0154 µM |
| CS(=O)(=O)c1ccc(-c2cccc([C@H]3O[C@H](CO)[C@@H](O)[C@H](O[C@H]4O[C@H](CO)[C@@H](O)[C@H](O)[C@@H]4O)[C@@H]3O)c2)cc1 [Compound 276, (2R,3S,4S,5S,6R)-2-[(2R,3R,4R,5R,6R)-3,5-dihydroxy-2-(hydroxymethyl)-6-[3-(4-methylsulfonylphenyl)phenyl]tetrahydropyran-4-yl]oxy-6-(hydroxymethyl)tetrahydropyran-3,4,5-triol] | 0.049 µM | 0.0111 ± 0.0034 µM |
| CNC(=O)c1cc(C(=O)NC)cc(-c2cccc([C@H]3O[C@H](CO)[C@@H](O)[C@H](O[C@H]4O[C@H](CO)[C@@H](O)[C@H](O)[C@@H]4O)[C@@H]3O)c2)c1 [Compound 277, 5-[3-[(2R,3R,4R,5R,6R)-3,5-Dihydroxy-6-(hydroxymethyl)-4-[(2R,3S,4S,5S,6R)-3,4,5-trihydroxy-6-(hydroxymethyl)tetrahydropyran-2-yl]oxy-tetrahydropyran-2-yl]phenyl]-N1,N3-dimethyl-benzene-1,3-dicarboxamide] | 0.047 µM | 0.0107 ± 0.0039 µM |
| OC[C@H]1O[C@H](O[C@@H]2[C@H](O)[C@@H](c3cccc(C4CCCCC4)c3)O[C@H](CO)[C@H]2O)[C@@H](O)[C@@H](O)[C@@H]1O [Compound 278, (2R,3S,4S,5S,6R)-2-[(2R,3R,4R,5R,6R)-2-(3-Cyclohexylphenyl)-3,5-dihydroxy-6-(hydroxymethyl)tetrahydropyran-4-yl]oxy-6-(hydroxymethyl)tetrahydropyran-3,4,5-triol] | 0.064 µM | 0.0127 ± 0.0009 µM |
| OC[C@H]1O[C@H](O[C@@H]2[C@H](O)[C@@H](c3cccc(-c4cncnc4)c3)O[C@H](CO)[C@H]2O)[C@@H](O)[C@@H](O)[C@@H]1O [Compound 279, (2R,3S,4S,5S,6R)-2-[(2R,3R,4R,5R,6R)-3,5-Dihydroxy-2-(hydroxymethyl)-6-(3-pyrimidin-5-ylphenyl)tetrahydropyran-4-yl]oxy-6-(hydroxymethyl)tetrahydropyran-3,4,5-triol] | 0.051 µM | 0.0099 ± 0.0011 µM |
| Cn1cnc2ccc(-c3cccc([C@H]4O[C@H](CO)[C@@H](O)[C@H](O[C@H]5O[C@H](CO)[C@@H](O)[C@H](O)[C@@H]5O)[C@@H]4O)c3)cc21 [Compound 280, (2R,3S,4S,5S,6R)-2-[(2R,3R,4R,5R,6R)-3,5-Dihydroxy-2-(hydroxymethyl)-6-[3-(3-methylbenzimidazol-5-yl)phenyl]tetrahydropyran-4-yl]oxy-6-(hydroxymethyl)tetrahydropyran-3,4,5-triol (Trifluoroacetate Ion (1))] | 0.059 µM | 0.0181 ± 0.0071 µM |
| C=CC[C@H]1O[C@H](CO)[C@@H](O)[C@H](O[C@H]2O[C@H](CO)[C@@H](O)[C@H](O)[C@@H]2O)[C@@H]1O [Compound 281, (2R,3S,4S,5S,6R)-2-[(2R,3R,4R,5R,6R)-2-Allyl-3,5-dihydroxy-6-(hydroxymethyl)tetrahydropyran-4-yl]oxy-6-(hydro I amymethyl)tetrahydropyran-3,4,5-triol] | 0.216 µM | 0.0511 ± 0.0076 µM |
| OC[C@H]1O[C@H](O[C@H]2[C@H](O)[C@@H](CO)O[C@H](C/C=C/C3CCCCC3)[C@H]2O)[C@@H](O)[C@@H](O)[C@@H]1O [Compound 282, (2R,3S,4S,5S,6R)-2-[(2R,3R,4R,5R,6R)-2-[(E)-3-Cyclohexylallyl]-3,5-dihydroxy-6-(hydroxymethyl)tetrahydropyran-4-yl]oxy-6-(hydroxymethyl)tetrahydropyran-3,4,5-triol] | 0.212 µM | 0.0406 ± 3e-05 µM |
| COC(=O)c1ccc(CCC[C@H]2O[C@H](CO)[C@@H](O)[C@H](O[C@H]3O[C@H](CO)[C@@H](O)[C@H](O)[C@@H]3O)[C@@H]2O)cc1 [Compound 283, Methyl 4-[3-[(2R,3R,4R,5R,6R)-3,5-dihydroxy-6-(hydroxymethyl)-4-[(2R,3S,4S,5S,6R)-3,4,5-trihydroxy-6-(hydroxymethyl)tetrahydropyran-2-yl]oxy-tetrahydropyran-2-yl]propyl]benzoate] | 0.027 µM | 0.0108 ± 0.0041 µM |
| COc1cccc([C@H]2O[C@H](CO)[C@@H](O)[C@H](O[C@H]3O[C@H](CO)[C@@H](O)[C@H](O)[C@@H]3O)[C@@H]2O)c1 [Compound 284, (2R,3S,4S,5S,6R)-2-[(2R,3R,4R,5R,6R)-3,5-Dihydroxy-2-(hydroxymethyl)-6-(3-methoxyphenyl)tetrahydropyran-4-yl]oxy-6-(hydroxymethyl)tetrahydropyran-3,4,5-triol] | 0.049 µM | 0.166 ± 0.0965 µM |
| OC[C@H]1O[C@H](O[C@@H]2[C@H](O)[C@@H](c3cccc(OCC4CCCC4)c3)O[C@H](CO)[C@H]2O)[C@@H](O)[C@@H](O)[C@@H]1O [Compound 285, (2R,3S,4S,5S,6R)-2-[(2R,3R,4R,5R,6R)-2-[3-(Cyclopentylmethoxy)phenyl]-3,5-dihydroxy-6-(hydroxymethyl)tetrahydropyran-4-yl]oxy-6-(hydroxymethyl)-tetrahydropyran-3,4,5-triol] | 0.08 µM | 0.0147 ± 0.0012 µM |
| OC[C@H]1O[C@H](O[C@@H]2[C@H](O)[C@@H](c3cccc(OCCF)c3)O[C@H](CO)[C@H]2O)[C@@H](O)[C@@H](O)[C@@H]1O [Compound 287, (2R,3S,4S,5S,6R)-2-[(2R,3R,4R,5R,6R)-2-[3-(2-Fluoroethoxy)phenyl]-3,5-dihydroxy-6-(hydroxymethyl)tetrahydropyran-4-yl]oxy-6-(hydroxymethyl)tetrahydropyran-3,4,5-triol] | 0.107 µM | 0.0322 ± 0.0085 µM |
| CNC(=O)COc1cccc([C@H]2O[C@H](CO)[C@@H](O)[C@H](O[C@H]3O[C@H](CO)[C@@H](O)[C@H](O)[C@@H]3O)[C@@H]2O)c1 [Compound 288, 2-[3-[(2R,3R,4R,5R,6R)-3,5-dihydroxy-6-(hydroxymethyl)-4-[(2R,3S,4S,5S,6R)-3,4,5-trihydroxy-6-(hydroxymethyl)tetrahydropyran-2-yl]oxy-tetrahydropyran-2-yl]phenoxy]-N-methyl-acetamide] | 0.046 µM | 0.0287 ± 0.0256 µM |
| COc1ccc([C@H]2O[C@H](CO)[C@@H](O)[C@H](O[C@H]3O[C@H](CO)[C@@H](O)[C@H](O)[C@@H]3O)[C@@H]2O)cc1O [Compound 289, (2R,3S,4S,5S,6R)-2-[(2R,3R,4R,5R,6R)-3,5-Dihydroxy-2-(3-hydroxy-4-methoxy-phenyl)-6-(hydroxymethyl)tetrahydropyran-4-yl]oxy-6-(hydroxymethyl)tetrahydropyran-3,4,5-triol] | 0.175 µM | 0.162 ± 0.241 µM |
| COc1ccc(C2O[C@H](CO)[C@@H](O)[C@H](O[C@H]3O[C@H](CO)[C@@H](O)[C@H](O)[C@@H]3O)[C@@H]2O)cc1Oc1ccc(NC(=O)C(C)C)cc1 (some centres unmarked) [Compound 290] | 0.029 µM | 0.0119 ± 0.0049 µM |
| CNC(=O)c1cccc(Oc2ccc([C@H]3O[C@H](CO)[C@@H](O)[C@H](O)[C@@H]3O)cc2)c1 [Compound 292, N-methyl-3-(4-((2R,3S,4R,5S,6R)-3,4,5-trihydroxy-6-(hydroxymethyl)tetrahydro-2H-pyran-2-yl)phenoxy)benzamide] | – | 0.006 ± 0.0004 µM |
